# In US20150352108A1, “AMINO-PYRIMIDINE COMPOUNDS AS INHIBITORS OF TBK1 AND/OR IKK EPSILON” (Alzheimer's Institute of America, priority 2009, published 2015):
# Assays:
# IKKε = target: T1, IKKε (Homo sapiens, UniProt Q14164); assay: In-vitro IKKε kinase assay ([γ33]ATP filter-plate); format: biochemical; conditions: text bins; read-out: IC50 for inhibition of the kinase activity of IKKε
# T1 construct: His-tag; made in house; host or cells: Sf9 insect cells
# T1 sequence (Q14164 1-716): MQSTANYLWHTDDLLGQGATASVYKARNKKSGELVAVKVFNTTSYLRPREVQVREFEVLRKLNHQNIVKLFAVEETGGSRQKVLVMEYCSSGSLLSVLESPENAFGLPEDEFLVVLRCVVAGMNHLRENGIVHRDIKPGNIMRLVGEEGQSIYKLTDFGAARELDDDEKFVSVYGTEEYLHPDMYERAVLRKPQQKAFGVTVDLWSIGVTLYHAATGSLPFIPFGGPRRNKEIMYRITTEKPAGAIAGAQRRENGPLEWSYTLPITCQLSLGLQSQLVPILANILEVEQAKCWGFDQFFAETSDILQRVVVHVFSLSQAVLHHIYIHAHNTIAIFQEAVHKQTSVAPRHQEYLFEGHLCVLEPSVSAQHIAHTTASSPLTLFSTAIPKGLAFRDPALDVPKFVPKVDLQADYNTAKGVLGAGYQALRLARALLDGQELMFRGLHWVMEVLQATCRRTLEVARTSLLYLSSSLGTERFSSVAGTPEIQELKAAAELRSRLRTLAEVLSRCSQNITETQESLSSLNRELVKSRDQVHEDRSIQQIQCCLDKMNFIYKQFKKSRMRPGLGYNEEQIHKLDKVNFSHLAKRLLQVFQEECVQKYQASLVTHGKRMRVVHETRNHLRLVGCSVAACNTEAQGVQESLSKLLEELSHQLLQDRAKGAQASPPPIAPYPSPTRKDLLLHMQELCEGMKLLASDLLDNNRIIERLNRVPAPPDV
# In short: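 His-tagged Sf9-expressed kinases at 0.1 or 0.02 μg/ml (TBK1) and 0.1 or 0.015 μg/ml (IKKε) for normal and sensitized formats, with myelin basic protein or casein substrate. ATP was at 2×Km (60 μM TBK1, 32 μM IKKε) plus 0.3 μCi [γ33]ATP. Reactions ran 30-45 min, were captured on P-81 filters, and counts were normalized to DMSO.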
# [1] = system: IKKε-mediated phosphorylation of IRF3; assay: In-situ phosphorylation of IRF3 (pIRF3 Ser396 ELISA) in HEK293T cells cotransfected with IRF3 and IKKε; format: cell-based; conditions: Homo sapiens, HEK-293T; HEK293T cells, 20 hours, text bins; read-out: IC50 for inhibition of the in-situ IKKε-mediated phosphorylation of IRF3
# Description: HEK293T cells were cotransfected in a 10-cm dish with IRF3 and IKKε expression plasmids using Lipofectamine 2000 (Invitrogen, Carlsbad, Calif.). The following day, cells were replated at 20,000 per well in 96-well plates and treated with test compounds (compounds according to Formula I) for 20 hours. Cell lysates were prepared and analyzed using an ELISA for phospho-Ser396 (anti-IRF3 capture antibody, Santa Cruz Biotechnology, Inc., Santa Cruz, Calif.; anti-p-Ser396 IRF3 detection antibody, Cell Signaling, Danvers, Mass.). pIRF3 levels in compound treated cells were normalized to DMSO treated cells (no compound). Cell viability was assayed in a parallel set of plates to monitor cytotoxic effects of the test compounds (CellTiter-Glo, Promega, Inc., Madison, Wis.). TBK1 activity was tested by Western blotting using a phospho-specific IRF7 antibody. Similar to above, HEK293T cells were transfected with IRF7 and TBK1 expression plasmids. Cells were seeded in 12-well plates at 150,000 per well and treated overnight with test compounds. Protein lysates were prepared and processed for Western blotting followed by detection using a phosphor-Ser477/Ser479 IRF7 antibody (BD Biosciences, San Jose, Calif.)
Structure (SMILES),IC50 (IKKε) [nM],IC50 [1] [nM]
"Cc1cn(Cc2cccc(Nc3nccc(-c4ccc(O[C@@H]5CCN(C(=O)CO)C5)c(C#N)c4)n3)c2)cn1 [compound 662, 2-{[(3R)-1-(Hydroxyacetyl)pyrrolidin-3-yl]oxy}-5-[2-({3-[(4-methyl-1H-imidazol-1-yl)methyl]phenyl}amino)pyrimidin-4-yl]benzonitrile]",< 5,< 100
"Cn1ccc(C(=O)Nc2cccc(Nc3nccc(-c4ccc(OC5CCOCC5)c(C#N)c4)n3)c2)n1 [compound 547, N-[3-({4-[3-Cyano-4-(tetrahydro-2H-pyran-4-yloxy)phenyl]pyrimidin-2-yl}amino)phenyl]-1-methyl-1H-pyrazole-3-carboxamide]",< 5,100 to 250
"C[C@@H](O)C(=O)Nc1cccc(Nc2nccc(-c3ccc(OC4CCOCC4)c(C#N)c3)n2)c1 [compound 659, (2R)-N-[3-({4-[3-Cyano-4-(tetrahydro-2H-pyran-4-yloxy)phenyl]pyrimidin-2-yl}amino)phenyl]-2-hydroxypropanamide]",< 5,100 to 250
"N#Cc1cc(-c2ccnc(Nc3ccc4[nH]cnc4c3)n2)ccc1OC1CCOCC1 [compound 583, 5-[2-(1H-Benzimidazol-5-ylamino)pyrimidin-4-yl]-2-(tetrahydro-2H-pyran-4-yloxy)benzonitrile]",< 5,250 to 500
"N#Cc1cc(-c2ccnc(Nc3ccc(N4CCN(CCO)CC4)cc3)n2)ccc1OC1CCOCC1 [compound 512, 5-[2-({4-[4-(2-hydroxyethyl)piperazin-1-yl]phenyl}amino)pyrimidin-4-yl]-2-(tetrahydro-2H-pyran-4-yloxy)benzonitrile]",< 5,< 100
"CCc1cccc(Nc2nccc(-c3ccc(O[C@@H]4CCN(C(=O)CO)C4)c(C#N)c3)n2)c1 [compound 544, 5-{2-[(3-Ethylphenyl)amino]pyrimidin-4-yl}-2-{[(3R)-1-(hydroxyacetyl)pyrrolidin-3-yl]oxy}benzonitrile]",< 5,250 to 500
"N#Cc1cc(-c2ccnc(Nc3ccc(Cn4cncn4)cc3)n2)ccc1OC1CCOCC1 [compound 624, 2-(Tetrahydro-2H-pyran-4-yloxy)-5-(2-{[4-(1H-1,2,4-triazol-1-ylmethyl)phenyl]amino}pyrimidin-4-yl)benzonitrile]",< 5,< 100
"N#Cc1cc(-c2ccnc(Nc3cccc(N4CCC[C@H]4CO)c3)n2)ccc1O[C@@H]1CCN(C(=O)CO)C1 [compound 669, 2-{[(3R)-1-(Hydroxyacetyl)pyrrolidin-3-yl]oxy}-5-[2-({3-[(2S)-2-(hydrfoxymethyl)pyrrolidin-1-yl]phenyl}amino)pyrimidin-4-yl]benzonitrile]",< 5,100 to 250
"N#Cc1cc(-c2ccnc(Nc3ccc(-n4cncn4)cc3)n2)ccc1OC1CCOCC1 [compound 580, 2-(Tetrahydro-2H-pyran-4-yloxy)-5-(2-{[4-(1H-1,2,4-triazol-1-yl)phenyl]amino}pyrimidin-4-yl)benzonitrile]",< 5,250 to 500
"Cc1cn(Cc2cccc(Nc3nccc(-c4ccc(OC5CCOCC5)c(C#N)c4)n3)c2)cn1 [compound 653, 5-[2-({3-[(4-Methyl-1H-imidazol-1-yl)methyl]phenyl}amino)pyrimidin-4-yl]-2-(tetrahydro-2H-pyran-4-yloxy)benzonitrile]",< 5,< 100
"Cc1ccc(Nc2nccc(-c3ccc(O[C@@H]4CCN(C(=O)CO)C4)c(C#N)c3)n2)cc1C [compound 643, 5-{2-[(3,4-Dimethylphenyl)amino]pyrimidin-4-yl}-2-{[(3R)-1-(hydroxyacetyl)pyrrolidin-3-yl]oxy}benzonitrile]",< 5,250 to 500
N#Cc1cc(-c2ccnc(Nc3ccc(F)c(OCC4COCCN4)c3)n2)ccc1OC1CCOCC1 (stereo not drawn) [compound 545],< 5,250 to 500
"CN(C)Cc1cccc(Nc2nccc(-c3ccc(O[C@@H]4CCN(C(=O)CO)C4)c(C#N)c3)n2)c1 [compound 642, 5-[2-({3-[(Dimethylamino)methyl]phenyl}amino)pyrimidin-4-yl]-2-{[(3R)-1-(hydroxyacetyl)pyrrolidin-3-yl]oxy}benzonitrile]",< 5,< 100
"COc1cc(Nc2ncc(F)c(-c3ccc(O[C@@H]4CCN(C(=O)CO)C4)c(C#N)c3)n2)ccc1N1CCOCC1 [compound 552, 5-(5-Fluoro-2-{[3-methoxy-4-(morpholin-4-yl)phenyl]amino}pyrimidin-4-yl)-2-{[(3R)-1-(hydroxyacetyl)pyrrolidin-3-yl]oxy}benzonitrile]",< 5,< 100
"CCN(CC)CCOc1cc(Nc2nccc(-c3ccc(OCC4CC4)c(C#N)c3)n2)ccc1F [compound 535, 2-(Cyclopropylmethoxy)-5-[2-({3-[2-(diethylamino)ethoxy]-4-fluorophenyl}amino)pyrimidin-4-yl]benzonitrile]",< 5,250 to 500
"CC(=O)Nc1cccc(Nc2nccc(-c3ccc(OC4CCOCC4)c(C#N)c3)n2)c1 [compound 656, N-[3-({4-[3-Cyano-4-(tetrahydro-2H-pyran-4-yloxy)phenyl]pyrimidin-2-yl}amino)phenyl] acetamide]",< 5,< 100
"Cc1nccn1Cc1ccc(Nc2nccc(-c3ccc(OC4CCOCC4)c(C#N)c3)n2)cc1 [compound 609, 5-[2-({4-[(2-Methyl-1H-imidazol-1-yl)methyl]phenyl}amino)pyrimidin-4-yl]-2-(tetrahydro-2H-pyran-4-yloxy)benzonitrile]",< 5,< 100
"N#Cc1cc(-c2ccnc(Nc3ccc(F)c(OC4CCNC4)c3)n2)ccc1OCC1CC1 (stereo not drawn) [compound 670, 2-(Cyclopropyl-methoxy)-5-(2-{[4-fluoro-3-(pyrrolidin-3-yloxy)phenyl]amino}pyrimidin-4-yl)benzonitrile]",< 5,250 to 500
CN(C)CCN(C)c1cccc(Nc2nccc(-c3ccc(OC4CCOCC4)c(C#N)c3)n2)c1 [compound 661],< 5,< 100
"COc1cc(Nc2nccc(-c3ccc(OCC(C)C)c(C#N)c3)n2)ccc1CN1CC(OC)C1 [compound 600, 5-[2-({3-Methoxy-4-[(3-methoxyazetidin-1-yl)methyl]phenyl}amino)pyrimidin-4-yl]-2-(2-methylpropoxy) benzonitrile]",5 to 50,100 to 250
"CC(C)COc1ccc(-c2ccnc(Nc3ccc(N4CCN(CCO)CC4)cc3)n2)cc1C#N [compound 442, 5-[2-({4-[4-(2-Hydroxyethyl)piperazin-1-yl]phenyl}amino)pyrimidin-4-yl]-2-(2-methylpropoxy) benzonitrile]",< 5,< 100
"CN(C)C1CCN(C(=O)Nc2cccc(Nc3nccc(-c4ccc(OC5CCOCC5)c(C#N)c4)n3)c2)C1 (stereo not drawn) [compound 667, N-[3-({4-[3-Cyano-4-(tetrahydro-2H-pyran-4-yloxy)phenyl]pyrimidin-2-yl}amino)phenyl]-3-(dimethylamino) pyrrolidine-1-carboxamide]",< 5,< 100
"COc1cc(Nc2nccc(-c3ccc(OC4CCOCC4)c(C#N)c3)n2)ccc1-n1cnnn1 [compound 664, 5-(2-{[3-Methoxy-4-(1H-tetrazol-1-yl)phenyl]amino}pyrimidin-4-yl)-2-(tetrahydro-2H-pyran-4-yloxy)benzonitrile]",< 5,< 100
"COC1CN(C(C)c2ccc(Nc3nccc(-c4ccc(OC5CCOCC5)c(C#N)c4)n3)cc2)C1 (stereo not drawn) [compound 571, 5-[2-({4-[1-(3-Methoxyazetidin-1-yl)ethyl]phenyl}amino)pyrimidin-4-yl]-2-(tetrahydro-2H-pyran-4-yloxy)benzonitrile]",< 5,< 100
